From ChEMBL document CHEMBL1201862, “PubChem BioAssay data set” (2004)
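Step 1: Grow cells in 96-well plates. Step 2: Expose to compound for 48 hours at 5 concentrations. Step 3: Interpolate endpoints linearly; if unreached, use highest concentration. GI50: concentration for 50% inhibition of growth.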 Calls of active or inactive are those of the source. Cut-off read from the data, not from the text of the source: active = GI50 up to about 1.1 µM and inactive = higher.

Experiments:
Assay in all cases: inhibition of tumour cell growth, NCI panel, 48 h
A498 = test system: A498
ACHN = test system: ACHN
EKVX = test system: EKVX
HL-60 = test system: HL-60
K562 = test system: K562
MCF7 = test system: MCF7
MDA-MB-231 = test system: MDA-MB-231
MDA-MB-435 = test system: MDA-MB-435
Malme-3M = test system: Malme-3M
NCI-H23 = test system: NCI-H23
NCI-H460 = test system: NCI-H460
OVCAR-4 = test system: OVCAR-4
RXF 393 = test system: RXF 393
SK-MEL-28 = test system: SK-MEL-28
SK-MEL-5 = test system: SK-MEL-5
SN12C = test system: SN12C
SNB-19 = test system: SNB-19
U-251 = test system: U-251
UACC-257 = test system: UACC-257
UACC-62 = test system: UACC-62

Measured: GI50

CN(C)S(=O)(=O)Nc1ccccn1
inactive: A498 > 100 µM | ACHN > 100 µM | EKVX > 100 µM | HL-60 > 100 µM | K562 > 100 µM | MCF7 > 100 µM | MDA-MB-231 > 100 µM | MDA-MB-435 > 100 µM | Malme-3M > 100 µM | NCI-H23 > 100 µM | NCI-H460 > 100 µM | OVCAR-4 > 100 µM | RXF 393 > 100 µM | SK-MEL-28 > 100 µM | SK-MEL-5 > 100 µM | SN12C > 100 µM | SNB-19 > 100 µM | U-251 > 100 µM | UACC-257 > 100 µM | UACC-62 > 100 µM

O=C1c2c(Br)sc(Br)c2C(NC(=O)C(F)(F)F)C1O (stereo not given)
inactive: A498 > 100 µM | ACHN 29.5 µM | EKVX 19.5 µM | HL-60 8.39 µM | K562 12.1 µM | MCF7 22.8 µM | MDA-MB-231 19.2 µM | MDA-MB-435 23.5 µM | Malme-3M 20.2 µM | NCI-H23 22.6 µM | NCI-H460 20.4 µM | OVCAR-4 19.9 µM | RXF 393 13.3 µM | SK-MEL-28 21.8 µM | SK-MEL-5 19.5 µM | SN12C 18.7 µM | SNB-19 24.4 µM | U-251 19.5 µM | UACC-257 19.3 µM | UACC-62 20.3 µM

C/C(C=O)=C/[C@@]1(C)O[C@@H](C)[C@@](C)(O)[C@@H]1O
inactive: A498 83.6 µM | ACHN 24.5 µM | EKVX > 100 µM | HL-60 > 100 µM | K562 7.94 µM | MCF7 25.6 µM | MDA-MB-231 > 100 µM | MDA-MB-435 31 µM | Malme-3M 52 µM | NCI-H23 33.3 µM | NCI-H460 22.2 µM | OVCAR-4 > 100 µM | RXF 393 > 100 µM | SK-MEL-28 > 100 µM | SK-MEL-5 64.6 µM | SN12C 32.5 µM | SNB-19 61.1 µM | U-251 > 100 µM | UACC-257 22.1 µM | UACC-62 43.7 µM

N#C/C=C\c1ccc(-c2cc(C(F)(F)F)cc(C(F)(F)F)c2)o1
inactive: A498 26.5 µM | ACHN > 100 µM | EKVX 34.1 µM | HL-60 17.7 µM | K562 42.1 µM | MCF7 71.8 µM | MDA-MB-231 36.8 µM | MDA-MB-435 2.57 µM | Malme-3M 64.4 µM | NCI-H23 13.3 µM | NCI-H460 86.3 µM | OVCAR-4 91.8 µM | RXF 393 44.6 µM | SK-MEL-28 45.3 µM | SK-MEL-5 14.9 µM | SN12C 35.6 µM | SNB-19 30 µM | U-251 14.4 µM | UACC-257 > 100 µM | UACC-62 23.3 µM

CCO[C@@]12CCC3CC4CC[C@@](OCC)(O1)C4C32 (stereo not given in full)
inactive: A498 > 100 µM | ACHN > 100 µM | EKVX > 100 µM | HL-60 > 100 µM | K562 > 100 µM | MCF7 > 100 µM | MDA-MB-231 > 100 µM | MDA-MB-435 > 100 µM | Malme-3M > 100 µM | NCI-H23 > 100 µM | NCI-H460 > 100 µM | OVCAR-4 > 100 µM | RXF 393 > 100 µM | SK-MEL-28 > 100 µM | SK-MEL-5 > 100 µM | SN12C > 100 µM | SNB-19 > 100 µM | U-251 > 100 µM | UACC-257 > 100 µM | UACC-62 > 100 µM
